Assay results published in patent publication EP0429304A2, “Pyridone-carboxylic acid derivatives and their use as veterinary medicines” (SHIONOGI SEIYAKU KABUSHIKI KAISHA trading under the name of …, priority 1989, dated 1991).
Like-named read-outs stand apart in the source and are kept apart here.

Legend:
[1] = tested on: TS-resistant strain of MG; format: in vivo, chicken; conditions: for antimicrobial activity compared with ERFX: in vivo, po; for Number of infected fowl/Number of fowl tested / Infectious index Left air sack + / Infectious index Left air sack ++ / Infectious index Left air sack +++ / Infectious index Left air sack - / Infectious index Right air sack + / Infectious index Right air sack ++ / Infectious index Right air sack +++ / Infectious index Right air sack - / Number of fowl having air sack lesions: 9-days chicken; for Number of infected fowl/Number of fowl tested: 3.5 x 10³ CFU/fowl; for Infectious index Left air sack + / Infectious index Left air sack ++ / Infectious index Left air sack +++ / Infectious index Left air sack - / Infectious index Right air sack + / Infectious index Right air sack ++ / Infectious index Right air sack +++ / Infectious index Right air sack -: count of fowl; for Infectious index Left air sack + / Infectious index Left air sack ++ / Infectious index Left air sack +++ / Infectious index Left air sack - / Infectious index Right air sack + / Infectious index Right air sack ++ / Infectious index Right air sack +++ / Infectious index Right air sack - / Number of fowl having air sack lesions: 1.7 x 10³ CFU/fowl
[2] = tested on: Hemophilus pleuropneumonia (H.pp) M-1; experiment: In vitro sensitivity test (agar dilution method); format: cell-based; conditions: 37°C, 20 hours, 10 % CO₂
Protocol: (§1) Survey of the sensitivity of the compound (I) to various strains of microorganisms was performed by a liquid dilution method […] an agar dilution method, in which the bacteria used were of animal origin and included the following strains (15 strains out of 11 bacteria): Chicken-origin strain: Mycoplasma gallisepticum (MG), Mycoplasma synoviae (MS), Hemophilus paragallinarum (H.pg) and Escherichia coli (E.coli); Pig-origin strain: Mycoplasma hyopneumoniae (Mh), Hemophilus pleuropneumonia (H.pp) and Bordetella bronchiseptica (B.br); Fish-origin strain: Pasteurella piscicida (P.pis) and Streptococcus sp (Str.sp); others: Escherichia coli (E. coli), Salmonella typhimurium (S.typhi) and Staphylococcus aureus (S.au).
(§2) Of these bacteria, the strains belonging to MG, MS and Mh were cultured at 37°C for 7 days by a liquid dilution method, of which the culture medium comprised: 12 % horse-serum added "PPLO" (agar manufactured by Difco) medium for MG; 12 % pig-serum, 0.01 % βNAD (nicotinamide adenine dinucleotide) added Frey medium for MS; 0.5 % lactoalbumin added Hank's solution, 10 % horse-serum, 0.5 % yeast extract (25 %) for Mh, and the agar dilution method was applied to the strains belonging to H.pg, H.pp, S.typhi, E.coli, S.au and B.br. Specifically, the H.pg strain was cultured in a 5 % chicken-serum added chicken bouillon medium and the H.pp strain was cultured in a heart infusion agar added with 10 % sheep defibered blood and 0.05 % βNAD. In case of the H.pg and P.pp strains, observation was made after cultivation at 37°C for 20 hours under 10 % CO₂. Mueller Hinton agar (Difco) was used for the strains belonging to S.typhi, E.coli, S.au and B.br, and observation was made after cultivation at 37°C for 20 to 24 hours. P.pis and Str.sp, both being of fish-origin, were respectively cultured at 25°C for 40 to 48 hours in a 1.5 % NaCl added heart infusion agar and in a sensitive disk medium.

[3] = tested on: Salmonella typhimurium (S.typhi) 13311; experiment: In vitro sensitivity test (agar dilution method); format: cell-based; conditions: 37°C, 20 to 24 hours
Protocol: as §1, §2

[4] = tested on: Escherichia coli (E.coli) JC-2; experiment: In vitro sensitivity test (agar dilution method); format: cell-based; conditions: 37°C, 20 to 24 hours
Protocol: as §1, §2

[5] = tested on: Staphylococcus aureus (S.au) 209P; experiment: In vitro sensitivity test (agar dilution method); format: cell-based; conditions: 37°C, 20 to 24 hours
Protocol: as §1, §2

[6] = tested on: Bordetella bronchiseptica (B.br) ABU-1; experiment: In vitro sensitivity test (agar dilution method); format: cell-based; conditions: 37°C, 20 to 24 hours
Protocol: as §1, §2

[7] = tested on: Mycoplasma gallisepticum (MG) S6; experiment: In vitro sensitivity test (liquid dilution method); format: cell-based; conditions: 37°C, 7 days
Protocol: as §1, §2

[8] = tested on: Mycoplasma hyopneumoniae (Mh) ST-11; experiment: In vitro sensitivity test (liquid dilution method); format: cell-based; conditions: 37°C, 7 days
Protocol: as §1, §2

[9] = tested on: Pasteurella piscicida (P.pis) No. 2; experiment: In vitro sensitivity test; format: cell-based; conditions: 25°C, 40 to 48 hours
Protocol: as §1, §2

[10] = tested on: Streptococcus sp (Str.sp) SNO6119; experiment: In vitro sensitivity test; format: cell-based; conditions: 25°C, 40 to 48 hours
Protocol: as §1, §2

TS-resistant MG = experiment: Experimental MG infection to chicken, through bait; format: in vivo; conditions: 9-days chicken, 6.6 x 10³ CFU/fowl, dissection 6th day after inoculation

CNC[C@@]12CCC[C@@H]1CN(c1c(F)cc3c(=O)c(C(=O)O)cn(C4CC4)c3c1Cl)C2.Cl (relative stereo) [I-11, 7-[(1R*,5S*)-1-methylaminomethyl-3-azabicyclo[3.3.0]octan-3-yl]-1-cyclopropyl-8-chloro-6-fluoro-1,4-dihydro-4-oxo-3-quinolinecarboxylic acid hydrochloride]
antimicrobial activity compared with ERFX [1]: nearly equal potency to ERFX

Cl.N[C@H]1CC[C@H]2CN(c3c(F)cc4c(=O)c(C(=O)O)cn(C5CC5)c4c3F)C[C@H]21 (relative stereo) [I-12]
antimicrobial activity compared with ERFX [1]: two times more effective than ERFX | complete inihibition of the lesions in air sac at a concentration of ([1]; oral administration, MG-infected chicken): about 3.13 mg/kg | In vitro Sensitivity Test H.pp M-1 [2]: 0.2 µg/mL | In vitro Sensitivity Test S.typhi 13311 [3]: 0.1 µg/mL | In vitro Sensitivity Test E.coli JC-2 [4]: 0.1 µg/mL | In vitro Sensitivity Test S.au 209P [5]: 0.1 µg/mL | In vitro Sensitivity Test B.br ABU-1 [6]: 0.39 µg/mL | In vitro Sensitivity Test MG S6 [7]: 0.00313 µg/mL | In vitro Sensitivity Test Mh ST-11 [8]: <0.00625 µg/mL | In vitro Sensitivity Test P.pis No. 2 [9]: 0.39 µg/mL | In vitro Sensitivity Test Str.sp SNO6119 [10]: 0.78 µg/mL

CCn1cc(C(=O)O)c(=O)c2cc(F)c(N3C[C@H]4CCC[C@@]4(CNC)C3)c(F)c21.Cl (relative stereo) [I-19, 7-[(1R*,5S*)-1-methylaminomethyl-3-azabicyclo[3.3.0]octan-3-yl]-1-ethyl-6,8-difluoro-1,4-dihydro-4-oxo-3-quinolinecarboxylic acid hydrochloride]
Number of infected fowl/Number of fowl tested ([1]; oral 1.56 mg/kg): 3/5 | Number of infected fowl/Number of fowl tested ([1]; oral 3.13 mg/kg): 3/5 | Number of infected fowl/Number of fowl tested ([1]; oral 6.25 mg/kg): 1/5 | Number of infected fowl/Number of fowl tested (TS-resistant MG; bait 31.3 ppm/Day): 1/7 | Number of infected fowl/Number of fowl tested (TS-resistant MG; bait 62.5 ppm/Day): 0/7 | Number of infected fowl/Number of fowl tested (TS-resistant MG; bait 125 ppm/Day): 0/7 | In vitro Sensitivity Test H.pp M-1 [2]: 0.78 µg/mL | In vitro Sensitivity Test S.typhi 13311 [3]: 0.78 µg/mL | In vitro Sensitivity Test E.coli JC-2 [4]: 0.39 µg/mL | In vitro Sensitivity Test S.au 209P [5]: 0.05 µg/mL | In vitro Sensitivity Test MG S6 [7]: 0.00625 µg/mL | In vitro Sensitivity Test Mh ST-11 [8]: 0.39 µg/mL | In vitro Sensitivity Test P.pis No. 2 [9]: 1.56 µg/mL | In vitro Sensitivity Test Str.sp SNO6119 [10]: 1.56 µg/mL

O=C(O)c1cn(C2CC2)c2c(F)c(N3CC4CCCC(=O)C4C3)c(F)cc2c1=O (stereo not shown) [I-4]
Infectious index Left air sack + ([1]; oral 6.25 mg/kg): 1 | Infectious index Left air sack ++ ([1]; oral 6.25 mg/kg): 0 | Infectious index Left air sack +++ ([1]; oral 6.25 mg/kg): 0 | Infectious index Left air sack - ([1]; oral 6.25 mg/kg): 3 | Infectious index Right air sack + ([1]; oral 6.25 mg/kg): 1 | Infectious index Right air sack ++ ([1]; oral 6.25 mg/kg): 1 | Infectious index Right air sack +++ ([1]; oral 6.25 mg/kg): 0 | Infectious index Right air sack - ([1]; oral 6.25 mg/kg): 2 | Infectious index Left air sack + ([1]; oral 12.5 mg/kg): 0 | Infectious index Left air sack ++ ([1]; oral 12.5 mg/kg): 0 | Infectious index Left air sack +++ ([1]; oral 12.5 mg/kg): 0 | Infectious index Left air sack - ([1]; oral 12.5 mg/kg): 5 | Infectious index Right air sack + ([1]; oral 12.5 mg/kg): 0 | Infectious index Right air sack ++ ([1]; oral 12.5 mg/kg): 0 | Infectious index Right air sack +++ ([1]; oral 12.5 mg/kg): 0 | Infectious index Right air sack - ([1]; oral 12.5 mg/kg): 5 | Infectious index Left air sack + ([1]; oral 25.0 mg/kg): 0 | Infectious index Left air sack ++ ([1]; oral 25.0 mg/kg): 0 | Infectious index Left air sack +++ ([1]; oral 25.0 mg/kg): 0 | Infectious index Left air sack - ([1]; oral 25.0 mg/kg): 5 | Infectious index Right air sack + ([1]; oral 25.0 mg/kg): 0 | Infectious index Right air sack ++ ([1]; oral 25.0 mg/kg): 0 | Infectious index Right air sack +++ ([1]; oral 25.0 mg/kg): 0 | Infectious index Right air sack - ([1]; oral 25.0 mg/kg): 5 | Number of fowl having air sack lesions ([1]; oral 6.25 mg/kg): 2 | Number of fowl having air sack lesions ([1]; oral 12.5 mg/kg): 0 | Number of fowl having air sack lesions ([1]; oral 25.0 mg/kg): 0 | In vitro Sensitivity Test H.pp M-1 [2]: 0.2 µg/mL | In vitro Sensitivity Test S.typhi 13311 [3]: 0.39 µg/mL | In vitro Sensitivity Test E.coli JC-2 [4]: 0.2 µg/mL | In vitro Sensitivity Test S.au 209P [5]: 0.05 µg/mL | In vitro Sensitivity Test MG S6 [7]: 0.05 µg/mL | In vitro Sensitivity Test Mh ST-11 [8]: ≦0.025 µg/ml | In vitro Sensitivity Test P.pis No. 2 [9]: 6.25 µg/mL | In vitro Sensitivity Test Str.sp SNO6119 [10]: 0.39 µg/mL
